Laboratory results: patent publication US20230141403A1 (Hoffmann-La Roche Inc., priority 2020, published 2023)
Structures can show the parent of a compound that is named as a salt.

Test system: Acinetobacter baumannii ATCC17978
Assay: Antimicrobial susceptibility testing: 90% growth inhibitory concentration (IC90) determination
Format: cell-based
Settings: ATCC17978, 90% growth inhibitory concentration, Iso-Sensitest broth, optical density at 600 nm over 16h, 35±2° C., read-out: AB ATCC 17978 IC90
Method: Antimicrobial Susceptibility Testing:
90% Growth Inhibitory Concentration (IC90) Determination
The in vitro antimicrobial activity of the compounds was determined according to the following procedure:
The assay used a 10-points Iso-Sensitest broth medium to measure quantitatively the in vitro activity of the compounds against Acinetobacter baumannii ATCC17961 or ATCC17978.
Stock compounds in DMSO were serially twofold diluted (e.g. range from 50 to 0.097 μM final concentration) in 384 wells microtiter plates and inoculated with 49 μl the bacterial suspension in Iso-Sensitest medium to have a final cell concentration of ˜5×10^(5) CFU/ml in a final volume/well of 50 ul/well. Microtiter plates were incubated at 35±2° C.
Bacterial cell growth was determined with the measurement of optical density at λ=600 nm each 20 minutes over a time course of 16h. Growth inhibition was calculated during the logarithmic growth of the bacterial cells with determination of the concentration inhibiting 50% (IC50) and 90% (IC90) of the growth.
Table 1 provides the 90% growth inhibitory concentrations (IC90) in micromoles per liter of the compounds of present invention obtained against the strain Acinetobacter baumannii ATCC17978.

Row | IC90 | SMILES
1 | 0.34 µM | CC(=O)Nc1ccc(Nc2nccn3c(-c4ccc(F)c(F)c4)cnc23)cc1C [Example 85, N-(4-((3-(3,4-difluorophenyl)imidazo[1,2-a]pyrazin-8-yl)amino)-2-methylphenyl) acetamide]
2 | 0.7 µM | CCc1cc(Nc2nccn3c(-c4ccc(OC)c(F)c4F)cnc23)ccc1N [Example 92, N1-(3-(2,3-difluoro-4-methoxyphenyl)imidazo[1,2-a]pyrazin-8-yl)-3-ethylbenzene-1,4-diamine]
3 | 0.89 µM | CC(=O)Nc1ccc(Nc2nccn3c(-c4ccc(F)c(F)c4F)cnc23)cc1 [Example 82, N-(4-((3-(2,3,4-trifluorophenyl)imidazo[1,2-a]pyrazin-8-yl)amino)phenyl)acetamide]
4 | 0.17 µM | CC(=O)Nc1ccc(Nc2nccn3c(-c4ccc(Cl)c(F)c4)cnc23)cc1C [Example 84, N-(4-((3-(4-chloro-3-fluorophenyl)imidazo[1,2-a]pyrazin-8-yl)amino)-2-methylphenyl)]
5 | 0.37 µM | COc1ccc(-c2cnc3c(Nc4ccc(Cn5ccnc5)c(C)c4)nccn23)cc1 [Example 119, N-[4-(imidazol-1-ylmethyl)-3-methyl-phenyl]-3-(4-methoxyphenyl) imidazo[1,2-a]pyrazin-8-amine]
6 | 0.73 µM | CNC(=O)c1cc(Nc2nccn3c(-c4ccc(OC)cc4)cnc23)ccc1Cl [Example 76, 2-chloro-5-((3-(4-methoxyphenyl)imidazo[1,2-a]pyrazin-8-yl)amino)-N-methylbenzamide]
7 | 0.33 µM | COc1ccc(-c2cnc3c(Nc4ccc(N5CCCC5=O)cc4)nccn23)cc1 [Example 18, 1-[4-[[3-(4-methoxyphenyl)imidazo[1,2-a]pyrazin-8-yl]amino]phenyl]pyrrolidin-2-one]
8 | 0.087 µM | COc1ccc(-c2cnc3c(Nc4ccc(NC(C)=O)c(C)c4)nccn23)cc1Cl [Example 11, N-[4-[[3-(3-chloro-4-methoxy-phenyl)imidazo [1,2-a]pyrazin-8-yl]amino]-2-methyl-phenyl]acetamide; 2,2,2-trifluoroacetic acid]
9 | 0.72 µM | Cc1cc(Nc2nccn3c(-c4ccc(OC(F)F)cc4)cnc23)ccc1N1CCCC1=O [Example 54, 1-(4-((3-(4-(difluoromethoxy)phenyl)imidazo[1,2-a]pyrazin-8-yl)amino)-2-methylphenyl)pyrrolidin-2-one]
10 | 0.82 µM | COc1ccc(-c2cnc3c(Nc4ccc(NC(=O)CO)cc4)nccn23)cc1Cl [Example 10, N-[4-[[3-(3-chloro-4-methoxy-phenyl)imidazo [1,2-a]pyrazin-8-yl]amino]phenyl]-2-hydroxy-acetamide; 2,2,2-trifluoroacetic acid]
11 | 0.16 µM | CCc1cc(Nc2nccn3c(-c4ccc(OC)c(Cl)c4)cnc23)ccc1NC(C)=O [Example 45, N-(4-((3-(3-chloro-4-methoxyphenyl)imidazo[1,2-a]pyrazin-8-yl)amino)-2-ethylphenyl)acetamide]
12 | 0.13 µM | COc1ccc(-c2cnc3c(Nc4ccc(NC(C)=O)c(C)c4)nccn23)cc1F [Example 47, N-(4-((3-(3-fluoro-4-methoxyphenyl)imidazo[1,2-a]pyrazin-8-yl)amino)-2-methylphenyl)acetamide]
13 | 0.83 µM | CC(=O)Nc1ccc(Nc2nccn3c(-c4ccc(Cl)cc4)cnc23)cc1 [Example 42, N-(4-((3-(4-chlorophenyl)imidazo[1,2-a]pyrazin-8-yl)amino)phenyl)acetamide]
14 | 0.77 µM | COCC(=O)Nc1ccc(Nc2nccn3c(-c4ccc(OC)cc4)cnc23)cc1 [Example 19, 2-Methoxy-N-{4-[3-(4-methoxy-phenyl)-imidazo[1,2-a]pyrazin-8-ylamino]-phenyl}-acetamide]
15 | 0.81 µM | CNS(=O)(=O)c1ccc(Nc2nccn3c(-c4ccc(OC)c(Cl)c4)cnc23)cc1 [Example 91, 4-((3-(3-chloro-4-methoxyphenyl)imidazo[1,2-a]pyrazin-8-yl)amino)-N-methylbenzenesulfonamide]
16 | 0.76 µM | CCN(CC)C(=O)CNS(=O)(=O)c1ccc(Nc2nccn3c(-c4ccc(OC)cc4)cnc23)cc1 [Example 80, N,N-diethyl-2-(4-((3-(4-methoxyphenyl)imidazo[1,2-a]pyrazin-8-yl)amino)phenylsulfonamido) acetamide]

Row | IC90 | SMILES
17 | 0.34 µM | COc1ccc(-c2cnc3c(Nc4ccc(N5CCCC5=O)cc4)nccn23)cc1Cl [Example 9, 1-[4-[[3-(3-chloro-4-methoxy-phenyl)imidazo [1,2-a]pyrazin-8-yl]amino]phenyl] pyrrolidin-2-one; 2,2,2-trifluoroacetic acid]
18 | 0.4 µM | COc1ccc(-c2cnc3c(Nc4ccc(NC(C)=O)cc4)nccn23)cc1F [Example 16, N-(4-((3-(3-fluoro-4-methoxyphenyl)imidazo[1,2-a]pyrazin-8-yl)amino)phenyl)acetamide]
19 | 0.63 µM | COc1ccc(-c2cnc3c(Nc4ccc(NC(C)=O)c(CO)c4)nccn23)cc1 [Example 50, N-(2-(hydroxymethyl)-4-((3-(4-methoxyphenyl)imidazo[1,2-a]pyrazin-8-yl)amino)phenyl)acetamide]
20 | 0.89 µM | COc1ccc(-c2cnc3c(Nc4ccc(NC(=O)CO)cc4)nccn23)cc1F [Example 12, N-[4-[[3-(3-fluoro-4-methoxy-phenyl)imidazo [1,2-a]pyrazin-8-yl]amino]phenyl]-2-hydroxy-acetamide; 2,2,2-trifluoroacetic acid]
21 | 0.25 µM | O=C1OCCN1c1ccc(Nc2nccn3c(-c4ccc(OC(F)F)cc4)cnc23)cc1 [Example 2, 3-[4-[[3-[4-(difluoromethoxy)phenyl]imidazo[1,2-a]pyrazin-8-yl]amino]phenyl]oxazolidin-2-one]
22 | 0.63 µM | COc1ccc(-c2cnc3c(Nc4ccc(S(C)(=O)=O)c(Cl)c4)nccn23)cc1 [Example 81, N-(3-chloro-4-(methylsulfonyl)phenyl)-3-(4-methoxyphenyl) imidazo [1,2-a]pyrazin-8-amine]
23 | 0.24 µM | CCCCC(=O)NCCOCC(=O)Nc1ccc(Nc2nccn3c(-c4ccc(OC)cc4)cnc23)cc1C [Example 90, N-(2-(2-((4-((3-(4-methoxyphenyl)imidazo[1,2-a]pyrazin-8-yl)amino)-2-methylphenyl)amino)-2-oxoethoxy)ethyl)pentanamide]
24 | 0.63 µM | COc1ccc(-c2cnc3c(Nc4ccc(S(=O)(=O)N(C)C)cc4)nccn23)cc1 [Example 77, 4-((3-(4-methoxyphenyl)imidazo[1,2-a]pyrazin-8-yl)amino)-N,N-dimethylbenzenesulfonamide]
25 | 0.54 µM | COc1ccc(-c2cnc3c(Nc4ccc(Cn5ccnc5)cc4)nccn23)cc1 [Example 117, N-[4-(imidazol-1-ylmethyl)phenyl]-3-(4-methoxyphenyl)imidazo[1,2-a]pyrazin-8-amine]
26 | 0.36 µM | CC(=O)Nc1ccc(Nc2nccn3c(-c4ccc(F)cc4)cnc23)cc1C [Example 53, N-(4-((3-(4-fluorophenyl)imidazo[1,2-a]pyrazin-8-yl)amino)-2-methylphenyl)acetamide]
27 | 0.25 µM | Cc1cc(Nc2nccn3c(-c4ccc(OC(F)F)cc4)cnc23)ccc1NC(=O)CN1CCC(N)C1 (stereo not shown) [Example 59, 2-(3-aminopyrrolidin-1-yl)-N-(4-((3-(4-(difluoromethoxy)phenyl)imidazo[1,2-a]pyrazin-8-yl)amino)-2-methylphenyl)acetamide]
28 | 0.33 µM | O=C1COCCN1c1ccc(Nc2nccn3c(-c4ccc(OC(F)F)cc4)cnc23)cc1 [Example 4, 4-[4-[[3-[4-(difluoromethoxy)phenyl]imidazo[1,2-a]pyrazin-8-yl]amino]phenyl]morpholin-3-one]
29 | 0.33 µM | CC(=O)Nc1ccc(Nc2nccn3c(-c4ccc(OCC#N)cc4)cnc23)cc1C [Example 88, N-(4-((3-(4-(cyanomethoxy)phenyl)imidazo[1,2-a]pyrazin-8-yl)amino)-2-methylphenyl) acetamide]
30 | 0.75 µM | COc1ccc(-c2cnc3c(Nc4ccc(NC(=O)CCl)cc4)nccn23)cc1 [Example 51, 2-chloro-N-(4-((3-(4-methoxyphenyl)imidazo[1,2-a]pyrazin-8-yl)amino)phenyl)acetamide]
31 | 0.3 µM | COc1ccc(-c2cnc3c(Nc4ccc(NC(=O)CN5CCNCC5)c(C)c4)nccn23)cc1Cl [Example 49, N-(4-((3-(3-chloro-4-methoxyphenyl)imidazo[1,2-a]pyrazin-8-yl)amino)-2-methylphenyl)-2-(piperazin-1-yl)acetamide]

Same assay, conditions: ATCC17978, 16 h, read-out: AB ATCC 17978 IC90 (uM)

Row | SMILES | IC90
32 | CCc1cc(Nc2nccn3c(-c4ccc(OC)c(F)c4F)cnc23)ccc1NC(=O)CCN [Example 93, 3-amino-N-(4-((3-(2,3-difluoro-4-methoxyphenyl)imidazo[1,2-a]pyrazin-8-yl)amino)-2-ethylphenyl)propanamide hydrochloride] | 0.18 µM
33 | COc1ccc(-c2cnc3c(Nc4ccc5c(c4)CCCC(=O)N5)nccn23)cc1F [Example 5, 7-[[3-(3-fluoro-4-methoxy-phenyl)imidazo[1,2-a]pyrazin-8-yl]amino]-1,3,4,5-tetrahydro-1-benzazepin-2-one hydrochloride] | 0.88 µM
34 | COc1ccc(-c2cnc3c(Nc4ccc(NC(=O)COCCOCCN)cc4)nccn23)cc1Cl [Example 13, 2-[2-(2-aminoethoxy)ethoxy]-N-[4-[[3-(3-chloro-4-methoxy-phenyl)imidazo[1,2-a]pyrazin-8-yl]amino]phenyl]acetamide; 2,2,2-trifluoroacetic acid] | 0.81 µM
